Measurements from patent US4011390A, “Semi-synthetic aminocyclitol aminoglycoside antibiotics and methods for the preparation thereof” (Schering-Plough Corporation, priority 1974, dated 1977).

Tests used:
Assay type in all cases: cell-based
Bacillus subtilis = test: Disc test, Bauer-Kirby technique with 10 Mcg. discs; details: strain ATCC 6633
Description: (§1) Disc Test Results (Replicate Tests) With The Mutamicins, Sisomicin and
(§2) Bauer-Kirby Technique^1 With 10 Mcg. Discs
(§3) ^1 Bauer, Kirby, Sherris and Turck, American Journal of Clinical

Streptococcus pyogenes = test: as above
Description: as §1, §2, §3

Pseudomonas aeruginosa [1] = test: as above
Description: as §1, §2, §3

Klebsiella pneumoniae [2] = test: as above
Description: as §1, §2, §3

Staphylococcus aureus = test: as above
Description: as §1, §2, §3

Escherichia coli = test: as above; details: 10 Mcg. discs
Description: as §1, §2, §3

Providence 164 = test: as above; details: strain 164
Description: as §1, §2, §3

E. coli = test: Activity against resistant strains; details: E. coli W677/R55 and LA290/R55
Description: (§4) In many instances, bacterial resistance is related to the organism's ability to inactivate the antibacterial agent via enzymatic (biochemical) means. Some species inactivate aminoglycosides antibiotics by acetylating the antibacterial agent, others by phosphorylation and still others by adenylylating. Some strains have several different inactivating capabilities. Further, the inactivation reactions occur at a specific site or sites on the antibacterial agent. We have shown by the compounds of this invention that alteration of sites on the antibiotic molecule not directly involved in inactivation processes can nevertheless frustrate these inactivation processes. […] The tables illustrate that the mutamicins include compounds which are active against strains having different mechanisms of inactivation of gentamicin, sisomicin, kanamycin, neomycin and torbramycin. For example, some mutamicins are effective against strains of E. coli which contain adenylylating R factors such as E. coli W677/R55 and LA290/R55. These E. coli strains are resistant to gentamicin, sisomicin and torbramycin. Some are also effective against gentamicin, tobramycin and kanamycin resistant adenylylating strains of Klebsiella pneumoniae and also kanamycin, neomycin phosphorylating strains of E. coli and Klebsiella pneumoniae. Further, some mutamicins are effective against gentamicin and sisomicin resistant strains of Pseudomonas aeruginosa and gentamicin, sisomicin, tobramycin resistant Providence which is sensitive to kanamycin. Thus, the mutamicins afford a means for combatting strains of bacteria which have already developed a variety of mechanisms for resisting the action of many of the antibiotics known in the art or currently in commercial use.

Pseudomonas aeruginosa [3] = test: Activity against resistant strains; details: gentamicin and sisomicin resistant strains
Description: as §4

Klebsiella pneumoniae [4] = test: Activity against resistant strains; details: gentamicin, tobramycin and kanamycin resistant adenylylating strains
Description: as §4

Providence = test: Activity against resistant strains; details: gentamicin, sisomicin, tobramycin resistant Providence
Description: as §4

gentamicin [reference compound]
Zone Size (Bacillus subtilis): 31 mm
Zone Size (Streptococcus pyogenes; strain B-Cruz): 16 mm
Zone Size (Streptococcus pyogenes; strain C): 13 mm
Zone Size (Pseudomonas aeruginosa [1]; strain Capetown 18): 12 mm
Zone Size (Pseudomonas aeruginosa [1]; strain D-2): 23 mm
Zone Size (Pseudomonas aeruginosa [1]; strain St. Michael 413): 26 mm
Zone Size (Pseudomonas aeruginosa [1]; strain St. Michael 762): 24 mm
Zone Size (Pseudomonas aeruginosa [1]; strain St. Michael 1262): 25 mm
Zone Size (Pseudomonas aeruginosa [1]; strain St. Michael 1395): 26 mm
Zone Size (Pseudomonas aeruginosa [1]; strain Stone 20): 27 mm
Zone Size (Pseudomonas aeruginosa [1]; strain Stone 39): 25 mm
Zone Size (Pseudomonas aeruginosa [1]; strain Stone 130): 12 mm
Zone Size (Pseudomonas aeruginosa [1]; strain Stone 138): 10 mm
Zone Size (Klebsiella pneumoniae [2]; strain Ad 17): 22 mm
Zone Size (Klebsiella pneumoniae [2]; strain Ad 18): 25 mm
Zone Size (Klebsiella pneumoniae [2]; strain Georgetown 3020): 11 mm
Zone Size (Klebsiella pneumoniae [2]; strain Georgetown 3694): 13 mm
Zone Size (Staphylococcus aureus; strain 59N): 28 mm
Zone Size (Staphylococcus aureus; strain ATCC 6538P): 25 mm
Zone Size (Staphylococcus aureus; strain Wood): 27 mm
Zone Size (Staphylococcus aureus; strain Ziegler): 26 mm
Zone Size (Escherichia coli; strain 589): 23 mm
Zone Size (Escherichia coli; strain ATCC 10536): 28 mm
Zone Size (Escherichia coli; strain JR88): 11 mm
Zone Size (Escherichia coli; strain JR90): 0 mm
Zone Size (Escherichia coli; strain LA290/R55): 12 mm
Zone Size (Escherichia coli; strain Swidinsky 4195): 23 mm
Zone Size (Escherichia coli; strain W677/R55): 13 mm
Zone Size (Providence 164): 11 mm
activity against strains containing adenylylating R factors (E. coli): resistant
activity against resistant strains (Pseudomonas aeruginosa [3]): resistant
activity against resistant adenylylating strains (Klebsiella pneumoniae [4]): resistant
activity against resistant Providence (Providence): resistant
